# Results from ChEMBL document CHEMBL4725221, “Thiazoles, Their Benzofused Systems, and Thiazolidinone Derivatives: Versatile and Promising Tools to Combat Antibiotic Resistance” (J Med Chem, 2020).
# Key:
# [1] = system: Escherichia coli; assay: Antibacterial activity against Escherichia coli MTCC 443 after 24 hrs; type: functional
# [2] = system: Staphylococcus aureus; assay: Antibacterial activity against Staphylococcus aureus MTCC 3160 after 24 hrs; type: functional
# [3] = system: Bacillus subtilis; assay: Antibacterial activity against Bacillus subtilis MTCC 441 after 24 hrs; type: functional
# [4] = system: Staphylococcus aureus; assay: Antibacterial activity against Staphylococcus aureus ATCC 29213 after 20 hrs by cup plate method; type: functional
# [5] = system: Escherichia coli; assay: Antibacterial activity against Escherichia coli ATCC 25922 after 20 hrs by cup plate method; type: functional
# [6] = system: Bacillus subtilis; assay: Antibacterial activity against Bacillus subtilis; type: functional
# [7] = system: Escherichia coli; assay: Antibacterial activity against Escherichia coli; type: functional
# [8] = system: Micrococcus luteus; assay: Antibacterial activity against Micrococcus luteus; type: functional
# [9] = system: Raoultella planticola; assay: Antibacterial activity against Klebsiella planticola; type: functional
# [10] = system: Staphylococcus aureus; assay: Antibacterial activity against Staphylococcus aureus; type: functional
# [11] = system: Staphylococcus aureus; assay: Antibacterial activity against Staphylococcus aureus MLS16; type: functional
# [12] = system: Pseudomonas aeruginosa; assay: Antibacterial activity against Pseudomonas aeruginosa; type: functional
# [13] = system: Staphylococcus saprophyticus; assay: Antibacterial activity against Staphylococcus saprophyticus; type: functional
# [14] = system: Enterococcus faecalis; assay: Antibiofilm activity against Enterococcus faecalis; type: functional
# [15] = system: Enterococcus faecalis; assay: Antibacterial activity against Enterococcus faecalis; type: functional
# [16] = system: Enterococcus faecalis; assay: Antibacterial activity against Enterococcus faecalis ATCC 19433 by NCCLS protocol based broth microdilution method
# [17] = system: Listeria monocytogenes; assay: Antibacterial activity against Listeria monocytogenes ATCC 19115 after 24 hrs by CLSI protocol based cup-plate agar diffusion method; type: functional
# [18] = system: Pseudomonas aeruginosa; assay: Antibacterial activity against Pseudomonas aeruginosa ATCC 27853 after 24 hrs by CLSI protocol based cup-plate agar diffusion method; type: functional
# [19] = system: Salmonella typhimurium; assay: Antibacterial activity against Salmonella typhimurium ATCC 14028 after 24 hrs by CLSI protocol based cup-plate agar diffusion method; type: functional, Salmonella enterica subsp. enterica serovar Typhimurium; conditions: Salmonella enterica
# [20] = system: Staphylococcus aureus; assay: Antibacterial activity against Staphylococcus aureus ATCC 49444 after 24 hrs by CLSI protocol based cup-plate agar diffusion method; type: functional
# [21] = system: Staphylococcus aureus; assay: Antibacterial activity against Staphylococcus aureus ATCC 25923 by CLSI protocol based microdilution method; type: functional, organism-based
# [22] = system: Staphylococcus aureus; assay: Antibacterial activity against Staphylococcus aureus ATCC 6538 by CLSI protocol based microdilution method; type: functional, organism-based
# [23] = system: Pseudomonas aeruginosa; assay: Antibacterial activity against Pseudomonas aeruginosa ATCC 15442 by CLSI protocol based cup-plate agar diffusion method; type: functional
structure (smiles),measurement,setting,value
O=C(CNC(=O)c1ccccc1)NN1C(=O)CSC1c1ccccc1Cl (stereo unspecified),MIC,[1],6.24 µg/mL
same,MIC,[2],12.5 µg/mL
same,MIC,[3],6.24 µg/mL
O=C(CNC(=O)c1ccccc1)NN1C(=O)CSC1c1ccc(Br)cc1 (stereo unspecified),MIC,[1],12.2 µg/mL
same,MIC,[2],6.51 µg/mL
same,MIC,[3],47.8 µg/mL
COc1ccc(-c2n[nH]c(N3C(=O)CS[C@H]3c3ccc(C)cc3)n2)cc1,MIC,[4],64 µg/mL
same,MIC,[5],32 µg/mL
O=c1oc2ccccc2cc1-c1nn(-c2nc3ccccc3s2)cc1/C=N/Nc1nc(-c2ccc(Br)cc2)cs1,MIC,[6],3.9 µg/mL
same,MIC,[7],7.8 µg/mL
same,MIC,[8],7.8 µg/mL
same,MIC,[9],7.8 µg/mL
same,MIC,[10],7.8 µg/mL
same,MIC,[11],7.8 µg/mL
same,MIC,[12],> 125 µg/mL
N#Cc1ccc(-c2csc(-c3cccc(-c4csc(-c5ccccc5)n4)c3)n2)cc1,MIC,[13],16 µg/mL
same,MBIC,[14],0.002 mg/mL
same,MIC,[15],62 µg/mL
Cc1ccc(-c2csc(N/N=C/c3cn(-c4nc5ccccc5s4)nc3-c3cc4ccccc4oc3=O)n2)cc1,MIC,[6],1.9 µg/mL
same,MIC,[7],7.8 µg/mL
same,MIC,[8],3.9 µg/mL
same,MIC,[9],3.9 µg/mL
same,MIC,[10],7.8 µg/mL
same,MIC,[11],7.8 µg/mL
same,MIC,[12],3.9 µg/mL
O=C(CNC(=O)c1ccccc1)NN1C(=O)CSC1c1cccc([N+](=O)[O-])c1 (stereo unspecified),MIC,[1],25.2 µg/mL
same,MIC,[2],25.2 µg/mL
same,MIC,[3],12.4 µg/mL
Cl.Cl.Nc1ccc2sc(NC(=O)c3sc4cc(N)ccc4c3Cl)nc2c1,MIC,[16],16 µg/mL
COc1ccc(-c2n[nH]c(N3C(=O)CS[C@H]3c3ccc(OC)cc3)n2)cc1,MIC,[4],128 µg/mL
same,MIC,[5],6 µg/mL
O=c1oc2c(Br)cccc2cc1-c1csc(N/N=C/c2cn(-c3nc4ccccc4s3)nc2-c2cc3ccccc3oc2=O)n1,MIC,[6],3.9 µg/mL
same,MIC,[7],7.8 µg/mL
same,MIC,[8],7.8 µg/mL
same,MIC,[9],7.8 µg/mL
same,MIC,[10],7.8 µg/mL
same,MIC,[11],7.8 µg/mL
same,MIC,[12],7.8 µg/mL
COc1ccc(-c2csc(N/N=C/c3cn(-c4nc5ccccc5s4)nc3-c3cc4ccccc4oc3=O)n2)cc1,MIC,[6],7.8 µg/mL
same,MIC,[7],7.8 µg/mL
same,MIC,[8],7.8 µg/mL
same,MIC,[9],7.8 µg/mL
same,MIC,[10],7.8 µg/mL
same,MIC,[11],7.8 µg/mL
same,MIC,[12],7.8 µg/mL
COc1ccc(-c2n[nH]c(N3C(=O)CS[C@H]3c3ccc(F)cc3)n2)cc1,MIC,[4],128 µg/mL
same,MIC,[5],64 µg/mL
Cc1nc(-c2ccccc2)sc1-c1nnc(S)n1/N=C\c1cccs1,MIC,[17],1.9 µg/mL
same,MIC,[18],1.9 µg/mL
same,MIC,[19],62.5 µg/mL
same,MIC,[20],15.6 µg/mL
Cc1sc(-c2cccc(-c3csc(-c4ccccc4)n3)c2)nc1-c1ccccc1,MIC,[13],> 1000 µg/mL
same,MBIC,[14],0.004 mg/mL
same,MIC,[15],250 µg/mL
Clc1ccc(-c2csc(-c3cccc(-c4csc(-c5ccccc5)n4)c3)n2)cc1,MIC,[13],2 µg/mL
same,MBIC,[14],0.016 mg/mL
same,MIC,[15],32 µg/mL
COCCn1cc(-c2nc(-c3cn(C)c4ccccc34)cs2)c2cc(Br)ccc21,IC50,[21],0.95 µg/mL
same,IC50,[22],11.2 µg/mL
same,MIC,[23],19.1 µg/mL
COc1ccc(-c2csc(-c3cccc(-c4csc(-c5ccccc5)n4)c3)n2)cc1,MIC,[13],125 µg/mL
same,MBIC,[14],0.004 mg/mL
same,MIC,[15],62 µg/mL
COCCn1cc(-c2nc(-c3c[nH]c4ccccc34)cs2)c2cc(Br)ccc21,IC50,[21],0.79 µg/mL
same,IC50,[22],9.4 µg/mL
same,MIC,[23],4.4 µg/mL
CCN(CC)c1ccc(/C=N\n2c(S)nnc2-c2sc(-c3ccccc3)nc2C)cc1,MIC,[17],1.9 µg/mL
same,MIC,[18],1.9 µg/mL
same,MIC,[19],62.5 µg/mL
same,MIC,[20],31.2 µg/mL
Nc1ccc2c(Cl)c(C(=O)Nc3nc4ccccc4s3)sc2c1,MIC,[16],8 µg/mL
O=c1oc2ccccc2cc1-c1nn(-c2nc3ccccc3s2)cc1/C=N/Nc1nc(-c2ccc(-c3ccccc3)cc2)cs1,MIC,[6],7.8 µg/mL
same,MIC,[7],7.8 µg/mL
same,MIC,[8],7.8 µg/mL
same,MIC,[9],31.2 µg/mL
same,MIC,[10],7.8 µg/mL
same,MIC,[11],7.8 µg/mL
same,MIC,[12],7.8 µg/mL
Cl.Nc1ccc2c(Cl)c(C(=O)Nc3nc4ccccc4s3)sc2c1,MIC,[16],16 µg/mL
COc1ccc(-c2n[nH]c(N3C(=O)CS[C@H]3c3ccc([N+](=O)[O-])cc3)n2)cc1,MIC,[4],16 µg/mL
same,MIC,[5],32 µg/mL
Cl.Nc1ccc2sc(NC(=O)c3sc4ccccc4c3Cl)nc2c1,MIC,[16],8 µg/mL
Cn1cc(-c2csc(-c3cn(CCN)c4ccc(F)cc34)n2)c2ccccc21,IC50,[21],0.5 µg/mL
same,IC50,[22],5.2 µg/mL
same,MIC,[23],3.9 µg/mL
O=C(Nc1nc2ccccc2s1)c1sc2cc([N+](=O)[O-])ccc2c1Cl,MIC,[16],16 µg/mL
O=[N+]([O-])c1ccc(-c2csc(-c3cccc(-c4csc(-c5ccccc5)n4)c3)n2)cc1,MIC,[13],32 µg/mL
same,MBIC,[14],0.002 mg/mL
same,MIC,[15],62 µg/mL
NCCn1cc(-c2nc(-c3c[nH]c4ccccc34)cs2)c2cc(Br)ccc21,IC50,[21],4.4 µg/mL
same,IC50,[22],3.3 µg/mL
same,MIC,[23],7.8 µg/mL
CCN(CC)c1ccc(C2SCC(=O)N2NC(=O)CNC(=O)c2ccccc2)cc1 (stereo unspecified),MIC,[1],3.07 µg/mL
same,MIC,[2],12.4 µg/mL
same,MIC,[3],12.4 µg/mL
Cc1ccc(C2SCC(=O)N2NC(=O)CNC(=O)c2ccccc2)cc1 (stereo unspecified),MIC,[1],12.6 µg/mL
same,MIC,[2],12.6 µg/mL
same,MIC,[3],12.6 µg/mL
O=c1oc2c(Br)cc(Br)cc2cc1-c1csc(N/N=C/c2cn(-c3nc4ccccc4s3)nc2-c2cc3ccccc3oc2=O)n1,MIC,[6],3.9 µg/mL
same,MIC,[7],7.8 µg/mL
same,MIC,[8],> 125 µg/mL
same,MIC,[9],7.8 µg/mL
same,MIC,[10],> 125 µg/mL
same,MIC,[11],7.8 µg/mL
same,MIC,[12],> 125 µg/mL
c1ccc(-c2csc(-c3cccc(-c4csc(-c5ccccc5)n4)c3)n2)cc1,MIC,[13],32 µg/mL
same,MBIC,[14],0.002 mg/mL
same,MIC,[15],125 µg/mL
NCCn1cc(-c2nc(-c3c[nH]c4ccccc34)cs2)c2cc(F)ccc21,IC50,[21],1.5 µg/mL
same,IC50,[22],6.3 µg/mL
same,MIC,[23],4.5 µg/mL
O=c1oc2ccc3ccccc3c2cc1-c1csc(N/N=C/c2cn(-c3nc4ccccc4s3)nc2-c2cc3ccccc3oc2=O)n1,MIC,[6],15.6 µg/mL
same,MIC,[7],7.8 µg/mL
same,MIC,[8],> 125 µg/mL
same,MIC,[9],7.8 µg/mL
same,MIC,[10],7.8 µg/mL
same,MIC,[11],7.8 µg/mL
same,MIC,[12],> 125 µg/mL
NCCn1cc(-c2nc(-c3c[nH]c4ccccc34)cs2)c2ccccc21,IC50,[21],4.7 µg/mL
same,IC50,[22],9.7 µg/mL
same,MIC,[23],22.7 µg/mL
